According to US10227347B2, “Purinyl-N-hydroxyl pyrimidine formamide derivative, preparation methods and uses thereof” (Guizhou Bailing Group Pharmaceutical CO., LTD., priority 2015, dated 2019):
Where two headings read alike, the source gives them in different places.

Legend:
[1] = target: T1, PI3Kγ (Homo sapiens, UniProt P48736); test: PI3Kγ activity inhibition (ADP-Glo); assay type: biochemical
T1 construct: purchased Invitrogen PR8641C
Protocol: Detecting the inhibition capability of the compound to PI3Kβ and PI3Kγ activities with ADP-Glo (purchased from Promege Company; Catalog No.: v9102/3). […] The reaction system also comprises substrates as PIP2 and ATP. The reaction buffer system comprises 50 mM HEPES, 3 mM MgCl2, 1 mM EGTA, 100 mM NaCl, 0.03% CHAPS and 2 mM DTT. The pH value of the reaction buffer is 7.5. […] Mixing the system evenly for incubation under ambient temperature for 1 h; getting a new 384 well plate and transferring 5 μL reaction liquid from the each well of original 384 well plate to the corresponding wells of the new 384 well plate; adding 5 μL ADP-Glo which has been preheated to ambient temperature into each new reaction well to terminate the reaction; oscillating it slowly in dark place for 40 min's incubation after it is mixed evenly; adding 10 μL testing liquid in each reaction well, oscillating it for 1 min to mix evenly and incubating it for 1 h, then measuring the fluorescence intensity with a microplate reader and analyzing the result data with the software GraphPad Prism.
Calculating the value of IC50 as per the formula: Y=background data+(top data−background data)/(1+10^((Log IC50−X)*rate of curve))
Where, Y refers to the inhibition ratio (%) and X refers to the compound concentration.

[2] = test system: MV4-11 cells (acute myeloid leukemia); test: Cell proliferation inhibition, MV4-11 (cck-8); assay type: cell-based; conditions: Homo sapiens
Outline: (§1)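 Cells seeded at 2000-3000/well; adherent lines dosed after attachment, then 96 h incubation with compound. Viability read by MTT for solid-tumour lines (HCT116, A2780s) and CCK-8 for MV4-11; IC50 from four-parameter logistic fit of inhibition ratio versus concentration.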

[3] = target: T2, PI3Kα (Homo sapiens, UniProt P42336); test: PI3Kα activity inhibition (Kinase-Glo); assay type: biochemical
T2 construct: purchased Invitrogen PV4788
T2 sequence (P42336 whole entry, species assumed): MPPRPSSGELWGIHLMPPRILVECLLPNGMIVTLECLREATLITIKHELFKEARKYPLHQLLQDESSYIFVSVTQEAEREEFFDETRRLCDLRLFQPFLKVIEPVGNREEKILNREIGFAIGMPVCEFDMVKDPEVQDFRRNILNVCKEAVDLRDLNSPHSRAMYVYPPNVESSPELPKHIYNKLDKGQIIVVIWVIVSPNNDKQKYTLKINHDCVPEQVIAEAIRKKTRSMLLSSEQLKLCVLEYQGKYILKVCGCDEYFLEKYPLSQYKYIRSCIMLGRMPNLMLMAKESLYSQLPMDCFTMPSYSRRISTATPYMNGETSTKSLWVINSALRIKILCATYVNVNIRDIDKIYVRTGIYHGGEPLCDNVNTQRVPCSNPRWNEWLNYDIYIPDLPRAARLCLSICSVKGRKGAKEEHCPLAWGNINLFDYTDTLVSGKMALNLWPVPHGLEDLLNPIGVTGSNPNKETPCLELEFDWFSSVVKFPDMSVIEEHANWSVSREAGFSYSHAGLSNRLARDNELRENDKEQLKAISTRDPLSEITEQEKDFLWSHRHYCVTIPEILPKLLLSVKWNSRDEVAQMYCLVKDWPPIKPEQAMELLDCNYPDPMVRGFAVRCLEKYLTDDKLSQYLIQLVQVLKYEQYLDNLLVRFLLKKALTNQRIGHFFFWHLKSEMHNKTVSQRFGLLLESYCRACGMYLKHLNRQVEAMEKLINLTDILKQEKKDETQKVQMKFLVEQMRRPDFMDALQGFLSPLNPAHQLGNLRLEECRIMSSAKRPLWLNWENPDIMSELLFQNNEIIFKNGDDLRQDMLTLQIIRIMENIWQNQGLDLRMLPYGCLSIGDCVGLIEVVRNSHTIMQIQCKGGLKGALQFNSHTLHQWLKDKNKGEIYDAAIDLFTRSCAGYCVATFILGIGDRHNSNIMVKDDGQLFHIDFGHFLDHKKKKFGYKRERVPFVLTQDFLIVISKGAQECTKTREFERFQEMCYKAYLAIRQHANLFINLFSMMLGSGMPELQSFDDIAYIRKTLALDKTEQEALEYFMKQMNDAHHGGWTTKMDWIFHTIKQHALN
T2 sequence (P27986 whole entry partner, species assumed): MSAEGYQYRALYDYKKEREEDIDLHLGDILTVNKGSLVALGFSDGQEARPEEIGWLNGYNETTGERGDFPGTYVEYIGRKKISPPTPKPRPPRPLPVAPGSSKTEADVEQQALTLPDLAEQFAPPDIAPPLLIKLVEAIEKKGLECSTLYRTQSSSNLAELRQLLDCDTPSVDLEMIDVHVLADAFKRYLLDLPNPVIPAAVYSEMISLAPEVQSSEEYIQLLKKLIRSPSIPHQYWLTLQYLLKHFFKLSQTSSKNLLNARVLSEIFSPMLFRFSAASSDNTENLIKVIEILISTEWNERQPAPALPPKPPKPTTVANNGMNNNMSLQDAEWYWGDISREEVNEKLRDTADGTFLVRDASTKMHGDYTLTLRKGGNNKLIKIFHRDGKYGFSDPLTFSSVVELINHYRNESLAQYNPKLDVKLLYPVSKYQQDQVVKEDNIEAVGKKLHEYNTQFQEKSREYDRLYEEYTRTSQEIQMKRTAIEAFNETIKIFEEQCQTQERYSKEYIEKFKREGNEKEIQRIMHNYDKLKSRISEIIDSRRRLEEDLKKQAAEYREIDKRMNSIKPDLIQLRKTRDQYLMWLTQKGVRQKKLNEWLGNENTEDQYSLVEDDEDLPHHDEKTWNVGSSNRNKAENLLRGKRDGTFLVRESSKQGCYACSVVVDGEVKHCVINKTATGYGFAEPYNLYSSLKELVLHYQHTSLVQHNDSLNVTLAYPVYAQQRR
Outline: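 Kinase-Glo luminescence read-out of remaining ATP after PI3K reaction with PIP2 and ATP substrates in 50 mM HEPES pH 7.5, 3 mM MgCl2, 1 mM EGTA, 100 mM NaCl, 0.03% CHAPS, 2 mM DTT. Incubated at ambient temperature, 1 h for PI3Kα, 2 h for PI3Kδ. IC50 from four-parameter fit of % inhibition versus concentration.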

[4] = test system: RPMI-8226 cells (multiple myeloma); test: Proliferation inhibition, RPMI-8226 (cck-8); assay type: cell-based; conditions: Homo sapiens, 96 h incubation
Source text: (§2) Calculating the value of IC50 as per the formula: Y=background data+(top data−background data)/(1+10^((Log IC50−X)*rate of curve)). Where, Y refers to the inhibition ratio (%) and X refers to the compound concentration.

[5] = target: T3, HDAC4 (Homo sapiens, UniProt P56524); test: HDAC4 enzyme inhibition (Lys-Ac-AMC); assay type: biochemical; conditions: Table 4, graded
T3 construct: purchased BPS Bioscience 50004
T3 sequence (P56524 627-1084 limits assumed): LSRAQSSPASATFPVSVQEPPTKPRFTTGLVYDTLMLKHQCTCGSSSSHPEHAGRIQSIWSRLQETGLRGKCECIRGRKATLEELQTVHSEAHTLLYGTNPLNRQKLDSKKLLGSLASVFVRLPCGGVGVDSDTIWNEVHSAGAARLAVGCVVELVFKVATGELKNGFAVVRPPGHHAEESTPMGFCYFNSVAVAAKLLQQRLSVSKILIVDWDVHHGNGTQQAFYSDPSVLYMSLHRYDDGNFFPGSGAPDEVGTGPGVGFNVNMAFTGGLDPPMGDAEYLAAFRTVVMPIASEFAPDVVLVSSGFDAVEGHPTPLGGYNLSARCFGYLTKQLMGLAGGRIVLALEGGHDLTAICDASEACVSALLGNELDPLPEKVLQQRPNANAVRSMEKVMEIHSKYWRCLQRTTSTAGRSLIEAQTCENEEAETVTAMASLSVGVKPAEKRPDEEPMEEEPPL
Protocol: Determining the inhibition capability of HDAC through the substrate method of fluorophore coupled acetylized peptide fragment (Lys-Ac-AMC). HDAC2-11 proteins of subtypes are purchased from BPS Bioscience Company with the Art. […] The reaction buffer system is a modified Tris buffer (pH7.0). The small molecule compounds are prepared and dissolved with 100% DMSO. […] Adding the compound into the reaction wells of the 384 well plate at the designed concentration, then adding 15 μL HDAC enzyme solution into the reaction wells (adding 15 μL blank buffer into the control well 0) for incubation under ambient temperature for 15 min; then adding 10 μL substrate solution to start reaction.
Analyzing the result data with the software GraphPad Prism and calculating the value of IC50 as per the formula: Y=background data+(top data−background data)/(1+10^((Log IC50−X)*rate of curve)). Where, Y refers to the inhibition ratio (%) and X refers to the compound concentration.

[6] = test system: hct116 cells (colon cancer); test: Cell proliferation inhibition, hct116 (MTT); assay type: cell-based; conditions: Homo sapiens, HCT-116
Outline: as §1

[7] = test system: Ramos cells (B-cell lymphoma); test: Proliferation inhibition, Ramos (cck-8); assay type: cell-based; conditions: Homo sapiens, 96 h incubation
Source text: as §2

[8] = test system: acetylated Ac-α-tubulin in A2780s cells; test: Induction of α-tubulin acetylation in A2780s cells (cytoblot); assay type: cell-based; conditions: Homo sapiens, 6 h treatment, read-out: Ac-Tub EC50
Protocol: Specific operation: After the treatment, washing each well once with 50-100 μl of cold TBS buffer [with the composition as 20 mM Tris (trismetyl aminomethane), pH7.5] and fixing it with 100 μL of 4% pre-cooled paraformaldehyde at 4° C. for 1 h; after paraformaldehyde is washed off, adding 50 μL of pre-cooled methyl alcohol in each well and evenly spreading at 4° C. for 5 min; after methyl alcohol is washed off, washing it once with the TBS buffer containing 3% skim milk powder and adding 50 μL of antibody fluid, oscillating it slightly at 4° C. and incubating overnight. For determination of Ac—H3, the antibody fluid is prepared by diluting Ac—H3 antibody and horseradish peroxide coupled secondary antibody to a same system with the TBS buffer containing 3% skim milk powder (Ac—H3 antibody is purchased from Santa Cruz Company and diluted at a ratio of 1:100; horseradish peroxide coupled secondary antibody is purchased from Jackson Company and diluted at a ratio of 1:2000); for determination of acetylated Ac-α-tubulin, the antibody fluid is prepared by diluting Ac-α-tubulin antibody and horseradish peroxide coupled secondary antibody to a same system with the TBS buffer containing 3% skim milk powder (Ac-α-tubulin antibody is purchased from Santa Cruz Company and diluted at a ratio of 1:100; horseradish peroxide coupled secondary antibody is purchased from Jackson Company and diluted at a ratio of 1:2000).
Calculating the value of IC50 as per the formula: Y=background data+(top data−background data)/(1+10^((Log EC50−X)*rate of curve)) Where, Y refers to the activating rate (%) and X refers to the compound concentration.

[9] = 96 h incubation, read-out: Proliferation IC50, Acute myeloid leukemia MV4-11
[10] = Table 1, graded, read-out: PI3Kα IC50
[11] = Table 4, graded, read-out: PI3Kα IC50
[12] = 96 h incubation, read-out: Proliferation IC50, Colon cancer hct116

T1 sequence (P48736 whole entry): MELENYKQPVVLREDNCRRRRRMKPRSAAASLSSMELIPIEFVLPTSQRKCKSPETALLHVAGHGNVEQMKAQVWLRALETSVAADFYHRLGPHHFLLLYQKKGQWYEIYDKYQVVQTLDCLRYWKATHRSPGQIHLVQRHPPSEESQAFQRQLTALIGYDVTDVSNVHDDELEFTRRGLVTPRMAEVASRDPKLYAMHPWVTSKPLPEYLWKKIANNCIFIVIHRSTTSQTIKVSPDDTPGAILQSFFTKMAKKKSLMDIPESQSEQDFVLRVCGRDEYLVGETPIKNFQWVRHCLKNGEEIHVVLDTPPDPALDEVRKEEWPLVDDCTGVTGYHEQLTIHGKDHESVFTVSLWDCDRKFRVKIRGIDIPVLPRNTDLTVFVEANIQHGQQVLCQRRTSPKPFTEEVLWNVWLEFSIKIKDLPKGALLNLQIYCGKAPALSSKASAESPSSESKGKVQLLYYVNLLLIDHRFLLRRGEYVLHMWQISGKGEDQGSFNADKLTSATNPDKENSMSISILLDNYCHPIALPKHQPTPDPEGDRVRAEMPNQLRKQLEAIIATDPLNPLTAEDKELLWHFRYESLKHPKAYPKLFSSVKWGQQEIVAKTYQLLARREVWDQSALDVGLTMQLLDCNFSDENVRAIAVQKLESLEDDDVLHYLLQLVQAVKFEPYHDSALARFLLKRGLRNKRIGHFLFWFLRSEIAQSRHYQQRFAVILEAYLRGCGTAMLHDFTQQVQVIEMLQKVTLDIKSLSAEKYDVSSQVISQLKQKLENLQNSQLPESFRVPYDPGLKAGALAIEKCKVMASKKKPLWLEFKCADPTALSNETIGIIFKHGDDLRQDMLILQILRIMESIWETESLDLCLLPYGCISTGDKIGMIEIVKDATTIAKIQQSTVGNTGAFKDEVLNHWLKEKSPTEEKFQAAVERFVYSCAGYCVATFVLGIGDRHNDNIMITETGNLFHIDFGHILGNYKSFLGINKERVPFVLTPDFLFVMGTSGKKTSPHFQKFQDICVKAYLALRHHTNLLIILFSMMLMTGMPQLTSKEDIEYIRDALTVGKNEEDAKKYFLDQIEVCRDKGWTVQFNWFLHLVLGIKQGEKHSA

SMILES	IC50 ([1]; Table 1, graded)	IC50 ([1]; Table 4, graded)	IC50 [2, 9]	IC50 [3, 10]	IC50 [3, 11]	IC50 [4]	IC50 [5]	IC50 [6, 12]	IC50 [7]	EC50 [8]	IC50 ([3]; read-out: inhibition value IC50 to the activity of PI3Kα)	IC50 ([2]; read-out: IC50 to proliferation of MV4-11 cells)	IC50 ([6]; read-out: IC50 to proliferation of hct116 cells)
COc1ccc(-c2nc(N3CCOCC3)c3nc(CN(C)c4ncc(C(=O)NO)cn4)n(C)c3n2)cn1 [CLJ-1, 2-(((2-(6-methoxypyridine-3-yl)-9-methyl-6-morpholine-9H-purine-8-yl))methyl(methyl)amino)-N-hydroxyl pyrimidine-5-formamide]	100 to 1000 nM	100 to 1000 nM	0.1 to 10 nM	1000 to 10000 nM	1000 to 10000 nM	1 to 10 nM	1000 to 10000 nM	10 to 100 nM	0.1 to 1 nM	100 to 200 nM	–	–	–
CN(Cc1nc2c(N3CCOCC3)nc(-c3cnc(N)nc3)nc2n1C)c1ncc(C(=O)NO)cn1 [CLJ-11, 2-(((2-(2-aminopyrimidine-5-yl)-9-methyl-6-morpholine-9H-purine-8-yl))methyl(methyl)amino)-N-hydroxyl pyrimidine-5-formamide]	100 to 1000 nM	1 to 100 nM	0.1 to 10 nM	< 100 nM	1 to 100 nM	10 to 100 nM	100 to 1000 nM	10 to 100 nM	10 to 100 nM	100 to 200 nM	< 100 nM	–	–
COc1ccc(-c2nc(N3CCOCC3)c3nc(CN(C)c4ncc(C(=O)NO)cn4)n(C)c3n2)cc1 [CLJ-29, 2-(((2-(4-methoxyphenyl)-9-methyl-6-morpholine-9H-purine-8-yl))methyl(methyl)amino)-N-hydroxyl pyrimidine-5-formamide]	–	> 10000 nM	0.1 to 10 nM	> 10000 nM	> 10000 nM	0.1 to 1 nM	1000 to 10000 nM	0.1 to 10 nM	1 to 10 nM	> 200 nM	–	0.1 to 10 nM	0.1 to 10 nM
CN(Cc1nc2c(N3CCOCC3)nc(-c3ccc(N)cc3)nc2n1C)c1ncc(C(=O)NO)cn1 [CLJ-44]	–	> 10000 nM	0.1 to 10 nM	1000 to 10000 nM	1000 to 10000 nM	0.1 to 1 nM	1000 to 10000 nM	10 to 100 nM	1 to 10 nM	> 200 nM	–	–	–
Cc1[nH]c2ccccc2c1CCNCc1ccc(/C=C/C(=O)NO)cc1 [LBH589, panobinostat, reference compound]	–	> 10000 nM	0.1 to 10 nM	–	> 10000 nM	1 to 10 nM	–	0.1 to 10 nM	0.1 to 1 nM	100 to 200 nM	–	–	–
